From patent US11274332B2, “Methods of administering 3,4-diaminopyridine” (SERB SA, priority 2011, dated 2022)
Several values for one entry are separate records, joined by “and”; a condition that tells them apart may be missing. Equal entries are not always repeated.

Test: Food-effect crossover study, adverse events after single 20 mg amifampridine phosphate in healthy subjects (Examples 10, 11)
Assay type: in vivo
Method: This was a randomized, open-label, 2-treatment, 2-period crossover study with 44 completed subjects to assess the safety, tolerability, and the effect of food on the relative bioavailability of a single dose of amifampridine phosphate.
Safety was evaluated for all subjects who take at least one dose of 3,4-DAP. Safety was evaluated by recording the incidence of adverse events (AEs), physical examination, vital signs, concomitant medications, clinical laboratory assessments, and 12-lead electrocardiogram (ECG).
Analysis for the following safety parameters was carried out on the Safety Population: AEs which included all AEs, AEs by severity, drug-related AEs, deaths, SAEs, AEs leading to study discontinuation, and most frequent AEs, standard clinical laboratory tests, vital signs, ECG measurements, routine physical examinations, and prior and concomitant medications. The cut-off for frequency of AEs reported was determined based on the data. No formal statistical testing was performed for the safety analyses; only descriptive statistics were provided. Appropriate descriptive statistics for the safety data were determined using SAS Version 9.2.
AEs were coded according to the Medical Dictionary for Regulatory Activities (MedDRA; Version 13.0). […] The occurrence of AEs was assessed continuously from the time the subject signed the VID and consent. The reporting period for non-serious AEs was from the first dose to the final study visit. The investigator determined the severity of each event and the relationship of an AE to the IP and recorded it on the source documents and AE CRF. The nature, time of onset, duration, severity, and relationship to study drug was documented, including documentation of investigator assessment and review. All events were assessed to determine if the AE was serious.
The Investigator determined the severity of each event and the event was recorded on the source documents and AE CRF. A coding of “mild” meant there was no limitation of usual activities, “moderate” meant there was some limitation of usual activities, “severe” meant there was an inability to carry out usual activities.
The reporting period for AEs that met the criteria of an SAE began from the time of signing the VID and consent form through follow-up or early termination. […] Clinical Laboratory Assessments

With `Nc1ccncc1N.O=P(O)(O)O` [amifampridine phosphate, 3,4-diaminopyridine phosphate] the “Diarrhoea, drug-related AE: % of subjects” value (Fed N=46) was “(0%) [0]”, the “Diarrhoea, drug-related AE: events” value (Fed N=46) was “(0%) [0]” and the “Diarrhoea, drug-related AE: subjects” value (Fed N=46) was 0. For the same compound, the “Discontinued due to adverse events: % of subjects” value (Fed N=46) was 2%, the “Discontinued due to adverse events: events” value (Fed N=46) was 1 and the “Discontinued due to adverse events: subjects” value (Fed N=46) was 1. The “Dizziness, drug-related AE: % of subjects” value (Fed N=46) was 4%, the “Dizziness, drug-related AE: events” value (Fed N=46) was 2 and the “Dizziness, drug-related AE: subjects” value (Fed N=46) was 2. For the same compound, the “Dysgeusia, drug-related AE: % of subjects” value (Fed N=46) was 4%, the “Dysgeusia, drug-related AE: events” value (Fed N=46) was 2 and the “Dysgeusia, drug-related AE: subjects” value (Fed N=46) was 2. The “Fatigue, drug-related AE: % of subjects” value (Fed N=46) was 7%, the “Fatigue, drug-related AE: events” value (Fed N=46) was 3 and the “Fatigue, drug-related AE: subjects” value (Fed N=46) was 3. For the same compound, the “Feeling Hot, drug-related AE: % of subjects” value (Fed N=46) was “(0%) [0]”, the “Feeling Hot, drug-related AE: events” value (Fed N=46) was “(0%) [0]” and the “Feeling Hot, drug-related AE: subjects” value (Fed N=46) was 0. The “Flushing, drug-related AE: % of subjects” value (Fed N=46) was 2%, the “Flushing, drug-related AE: events” value (Fed N=46) was 1 and the “Flushing, drug-related AE: subjects” value (Fed N=46) was 1. The “Gastrointestinal Disorders Total, drug-related AE: % of subjects” value (Fed N=46) was 4%, the “Gastrointestinal Disorders Total, drug-related AE: events” value (Fed N=46) was 2 and the “Gastrointestinal Disorders Total, drug-related AE: subjects” value (Fed N=46) was 2. The “General Disorders and Administration Site Conditions Total, drug-related AE: % of subjects” value (Fed N=46) was 7%, the “General Disorders and Administration Site Conditions Total, drug-related AE: events” value (Fed N=46) was 3 and the “General Disorders and Administration Site Conditions Total, drug-related AE: subjects” value (Fed N=46) was 3. For the same compound, the “Headache, drug-related AE: % of subjects” value (Fed N=46) was 2%, the “Headache, drug-related AE: events” value (Fed N=46) was 1 and the “Headache, drug-related AE: subjects” value (Fed N=46) was 1. The “Hypoaesthesia Facial, drug-related AE: % of subjects” value (Fed N=46) was “(0%) [0]”, the “Hypoaesthesia Facial, drug-related AE: events” value (Fed N=46) was “(0%) [0]” and the “Hypoaesthesia Facial, drug-related AE: subjects” value (Fed N=46) was 0. The “Hypoaesthesia Oral, drug-related AE: % of subjects” value (Fed N=46) was 7%, the “Hypoaesthesia Oral, drug-related AE: events” value (Fed N=46) was 3 and the “Hypoaesthesia Oral, drug-related AE: subjects” value (Fed N=46) was 3. For the same compound, the “Hypoaesthesia, drug-related AE: % of subjects” value (Fed N=46) was “(0%) [0]”, the “Hypoaesthesia, drug-related AE: events” value (Fed N=46) was “(0%) [0]” and the “Hypoaesthesia, drug-related AE: subjects” value (Fed N=46) was 0. The “Nausea, drug-related AE: % of subjects” value (Fed N=46) was 2%, the “Nausea, drug-related AE: events” value (Fed N=46) was 1 and the “Nausea, drug-related AE: subjects” value (Fed N=46) was 1. For the same compound, the “Nervous System Disorders Total, drug-related AE: % of subjects” value (Fed N=46) was 37%, the “Nervous System Disorders Total, drug-related AE: events” value (Fed N=46) was 31 and the “Nervous System Disorders Total, drug-related AE: subjects” value (Fed N=46) was 17. For the same compound, the “Paraesthesia Oral, drug-related AE: % of subjects” value (Fed N=46) was 28%, the “Paraesthesia Oral, drug-related AE: events” value (Fed N=46) was 15 and the “Paraesthesia Oral, drug-related AE: subjects” value (Fed N=46) was 13. The “Paraesthesia, drug-related AE: % of subjects” value (Fed N=46) was 15%, the “Paraesthesia, drug-related AE: events” value (Fed N=46) was 8 and the “Paraesthesia, drug-related AE: subjects” value (Fed N=46) was 7. For the same compound, the “Possibly or probably related AEs, Mild: % of subjects” value (Fed N=46) was 46%, the “Possibly or probably related AEs, Mild: events” value (Fed N=46) was 37 and the “Possibly or probably related AEs, Mild: subjects” value (Fed N=46) was 21. The “Possibly or probably related AEs, Moderate: % of subjects” value (Fed N=46) was “(0%) [0]”, the “Possibly or probably related AEs, Moderate: events” value (Fed N=46) was “(0%) [0]” and the “Possibly or probably related AEs, Moderate: subjects” value (Fed N=46) was 0. For the same compound, the “Possibly or probably related AEs, Severe: % of subjects” value (Fed N=46) was “(0%) [0]”, the “Possibly or probably related AEs, Severe: events” value (Fed N=46) was “(0%) [0]” and the “Possibly or probably related AEs, Severe: subjects” value (Fed N=46) was 0. For the same compound, the “Possibly or probably related AEs, Total: % of subjects” value (Fed N=46) was 46%, the “Possibly or probably related AEs, Total: events” value (Fed N=46) was 37 and the “Possibly or probably related AEs, Total: subjects” value (Fed N=46) was 21. The “Serious adverse events: % of subjects” value (Fed N=46) was “(0%) [0]”, the “Serious adverse events: events” value (Fed N=46) was “(0%) [0]” and the “Serious adverse events: subjects” value (Fed N=46) was 0. For the same compound, the “Skin and Subcutaneous Tissue Disorders Total, drug-related AE: % of subjects” value (Fed N=46) was “(0%) [0]”, the “Skin and Subcutaneous Tissue Disorders Total, drug-related AE: events” value (Fed N=46) was “(0%) [0]” and the “Skin and Subcutaneous Tissue Disorders Total, drug-related AE: subjects” value (Fed N=46) was 0. The “Vascular Disorders Total, drug-related AE: % of subjects” value (Fed N=46) was 2%, the “Vascular Disorders Total, drug-related AE: events” value (Fed N=46) was 1 and the “Vascular Disorders Total, drug-related AE: subjects” value (Fed N=46) was 1. The “All treatment emergent AEs, Total: subjects” value (Fed N=46, phosphate) was 24 and 23, the “Abdominal Pain Upper, drug-related AE: % of subjects” value (Female N=16) was 6% and the “Abdominal Pain Upper, drug-related AE: events” value (Female N=16) was 1. For the same compound, the “Abdominal Pain Upper, drug-related AE: subjects” value (Female N=16) was 1, the “Abdominal Pain, drug-related AE: % of subjects” value (Female N=16) was 13% and the “Abdominal Pain, drug-related AE: events” value (Female N=16) was 2. For the same compound, the “Abdominal Pain, drug-related AE: subjects” value (Female N=16) was 2, the “Abdominal Tenderness, drug-related AE: % of subjects” value (Female N=16) was 6% and the “Abdominal Tenderness, drug-related AE: events” value (Female N=16) was 1. For the same compound, the “Abdominal Tenderness, drug-related AE: subjects” value (Female N=16) was 1, the “Acne, drug-related AE: % of subjects” value (Female N=16) was “(0%) [0]” and the “Acne, drug-related AE: events” value (Female N=16) was “(0%) [0]”. For the same compound, the “Acne, drug-related AE: subjects” value (Female N=16) was 0, the “All treatment emergent AEs, Mild: % of subjects” value (Female N=16) was 75% and the “All treatment emergent AEs, Mild: events” value (Female N=16) was 41. The “All treatment emergent AEs, Mild: subjects” value (Female N=16) was 12, the “All treatment emergent AEs, Moderate: % of subjects” value (Female N=16) was 13% and the “All treatment emergent AEs, Moderate: events” value (Female N=16) was 2. For the same compound, the “All treatment emergent AEs, Moderate: subjects” value (Female N=16) was 2, the “All treatment emergent AEs, Severe: % of subjects” value (Female N=16) was “(0%) [0]” and the “All treatment emergent AEs, Severe: events” value (Female N=16) was “(0%) [0]”. For the same compound, the “All treatment emergent AEs, Severe: subjects” value (Female N=16) was 0, the “All treatment emergent AEs, Total: events” value (Female N=16) was 43 and the “All treatment emergent AEs, Total: subjects” value (Female N=16) was 12. For the same compound, the “Constipation, drug-related AE: % of subjects” value (Female N=16) was 6%, the “Constipation, drug-related AE: events” value (Female N=16) was 1 and the “Constipation, drug-related AE: subjects” value (Female N=16) was 1. For the same compound, the “Diarrhoea, drug-related AE: % of subjects” value (Female N=16) was 6%, the “Diarrhoea, drug-related AE: events” value (Female N=16) was 1 and the “Diarrhoea, drug-related AE: subjects” value (Female N=16) was 1. The “Discontinued due to adverse events: % of subjects” value (Female N=16) was “(0%) [0]”, the “Discontinued due to adverse events: events” value (Female N=16) was “(0%) [0]” and the “Discontinued due to adverse events: subjects” value (Female N=16) was 0. The “Dizziness, drug-related AE: % of subjects” value (Female N=16) was 25%, the “Dizziness, drug-related AE: events” value (Female N=16) was 5 and the “Dizziness, drug-related AE: subjects” value (Female N=16) was 4. The “Dysgeusia, drug-related AE: % of subjects” value (Female N=16) was “(0%) [0]”, the “Dysgeusia, drug-related AE: events” value (Female N=16) was “(0%) [0]” and the “Dysgeusia, drug-related AE: subjects” value (Female N=16) was 0. The “Fatigue, drug-related AE: % of subjects” value (Female N=16) was 13%, the “Fatigue, drug-related AE: events” value (Female N=16) was 2 and the “Fatigue, drug-related AE: subjects” value (Female N=16) was 2. The “Feeling Hot, drug-related AE: % of subjects” value (Female N=16) was “(0%) [0]”, the “Feeling Hot, drug-related AE: events” value (Female N=16) was “(0%) [0]” and the “Feeling Hot, drug-related AE: subjects” value (Female N=16) was 0. For the same compound, the “Flushing, drug-related AE: % of subjects” value (Female N=16) was 6%, the “Flushing, drug-related AE: events” value (Female N=16) was 1 and the “Flushing, drug-related AE: subjects” value (Female N=16) was 1. For the same compound, the “Gastrointestinal Disorders Total, drug-related AE: % of subjects” value (Female N=16) was 31%, the “Gastrointestinal Disorders Total, drug-related AE: events” value (Female N=16) was 8 and the “Gastrointestinal Disorders Total, drug-related AE: subjects” value (Female N=16) was 5. For the same compound, the “General Disorders and Administration Site Conditions Total, drug-related AE: % of subjects” value (Female N=16) was 13%.
